Test results: the METLIN SMRT retention time set (Domingo-Almenara et al. 2019)

Assay: gradient 5% acetonitrile 3 min, to 50% in 2 min, to 85% in 15 min, held 3 min, 100 µL/min
Settings: column: Zorbax Extend-C18 2.1 x 50 mm; eluents: water / acetonitrile, 0.1% formic acid
Method in brief: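 Retention times of pure standards were taken from adduct peaks that were selected by computer and manually inspected. Over 3 months, mixtures of ~100 molecules were run by HPLC–quadrupole time-of-flight mass spectrometry in positive and negative ionization mode. The Zorbax Extend-C18 column (2.1 × 50 mm, 1.8 μm) ran at 100 μL/min in water and acetonitrile, each containing 0.1% formic acid, with 40 μL dead volume and 900 μL dwell volume.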

Structure (SMILES)	RP-LC retention time [s]
CCC(=O)NCc1nc2c(n1CC)CN(S(=O)(=O)c1cc(C)ccc1C)CC2	590
COc1ccc(-c2nc3cc(F)ccc3s2)cc1OC	1030
O=S(=O)(c1ccccc1)c1[nH]c(-c2ccccc2)nc1SCc1ccncc1	651
Cc1cc(Cl)ccc1NS(=O)(=O)c1ccc2c(c1)NC(=O)C(C(=O)N1CCCC1)S2 (centres undefined)	827
COc1ccc(-c2cc3nn(CC(=O)Nc4cc(F)ccc4C)c(=O)n3c(C)n2)cc1	885
COc1ccc(OC)c(NC(=O)NCC(c2cccnc2)c2cn(C)c3ccccc23)c1 (centres undefined)	713
CS(=O)(=O)N1CCN(C(=O)c2coc(NC(=O)c3ccccc3)n2)CC1	608
CCCNC(=O)CN1C(=O)CCCc2cc(S(=O)(=O)N3CCCCCC3)ccc21	803
CCCn1ccc2sc(C)c(C(=O)NCc3cccc(Br)c3)c2c1=O	998
CCc1ccc(Oc2nccnc2N2CCC(C(=O)NC(C)c3ccccc3)CC2)cc1 (centres undefined)	1120
CCCN(CC1CCOC1)C(=O)Nc1ccc(C)cc1C (centres undefined)	811
CCc1noc(NC(C)=O)c1-c1ccc(C)c(S(=O)(=O)Nc2ccc(Cl)cc2F)c1	866
CC(C)(C)c1cc(C(=O)Nc2ccc(C#N)cc2)nc2ccnn12	1200
COc1ccc(C)cc1NC(=O)c1cc(C)n2nccc2n1	1050
O=C(Nc1nnc(-c2ccsc2)o1)C1CC(=O)N(c2ccc(Cl)cc2)C1 (centres undefined)	718
COC(=O)c1sc2ccccc2c1NC(=O)c1ccc(S(=O)(=O)N2CCCC2)cc1	946
Cc1nc(N2CCN(C(=O)c3ccccc3)CC2)c(C#N)c2c1COC(C)(C)C2	941
CCCCC(=O)N1CC(F)(F)C[C@H]1c1nnc(-c2cnccn2)o1	715
Cc1cc(C)cc(-n2ccn(Cc3nc(-c4cccc(F)c4)no3)c(=O)c2=O)c1	901
CN1CCN(C(=O)C2CCN(c3nc4ccc(-c5cccs5)nc4s3)CC2)CC1	646
COC(=O)c1cccc(NC(=O)NCCCn2c(C(F)(F)F)nc3cccnc32)c1	773
O=C(N[C@H]1C[C@@H]2C[C@H]1N(S(=O)(=O)c1cccs1)C2)c1ccccc1	833
O=C(Cn1ncc2c(N3CCN(c4ccccn4)CC3)ncnc21)Nc1ccc(OC(F)(F)F)cc1	660

Structure (SMILES)	RP-LC retention time [s]
Nc1ncnc(Nc2cccc3c2CCCC3)c1[N+](=O)[O-]	838
Cc1ccc2nc(N3CCN(C)CC3)c(-c3noc(C)n3)cc2c1	645
CC1CCN(S(=O)(=O)c2ccc3nn(Cc4c(F)cccc4Cl)c(=O)n3c2)CC1	1030
CCOc1ccccc1C(=O)Nc1nnc(SC(C)c2ccccc2)s1 (centres undefined)	1140
Cc1nc(-c2ccc(C(=O)NCc3cccnc3)cc2)cs1	612
O=C(CCCn1nc(-c2ccc(F)cc2)ccc1=O)Nc1nc2ccccc2[nH]1	584
O=C1COc2cc(S(=O)(=O)N3CCCC3C(=O)NCc3ccc(F)cc3)c(Cl)cc2N1 (centres undefined)	745
Cc1cc(C)cc(NS(=O)(=O)c2cc3n(c2)CCN(CC(C)C)C3=O)c1	869
COc1ccc2c(c1)c(CN1CCC(C(=O)NCCCN3CCc4ccccc4C3)CC1)cn2C	565
Cc1[nH]c(=O)[nH]c(=O)c1/C=C/C(=O)NC(CO)CC(C)C (centres undefined)	592
O=C(CCSc1ccccc1)N1CCN(c2ccc3nnc(-c4ccco4)n3n2)CC1	703
Cc1ccccc1CNC(=O)CN1CCN(Cc2ccc(F)cc2Cl)C1=O	629
COc1cc(NC(=O)CN2C(=O)C(C)(C)c3cc(Cl)ccc32)cc(OC)c1OC	867
Cc1ccc(CSc2nc(CC(=O)NCc3nnc(C)o3)cs2)cc1	724
CCOC(=O)c1cn(CC(=O)Nc2ccc3c(c2)OCO3)c2nc(C)ccc2c1=O	715
CS(=O)(=O)Nc1ccc([N+](=O)[O-])cc1OC1CCCCC1	982
Cc1ccc(=O)n(CCNC(=O)c2cc(C)oc2C)n1	616
Cc1nn(-c2ccc(F)cc2)c2nc(N3CCCC(C(=O)NCc4cccc(Cl)c4)C3)sc12 (centres undefined)	1200
O=C(CCn1cnc2cc(-c3noc(-c4ccc(F)cc4)n3)ccc21)N1CCOCC1	706
COCCOCc1nc(C2CCN(S(=O)(=O)c3cc(F)ccc3F)C2)no1 (centres undefined)	817
CCc1cccc(C)c1NC(=O)Cn1c(=O)n(-c2ccc(C)cc2)c(=O)c2c1cc(C)n2C	909
CS(=O)(=O)N1CCCNCCNC(=O)CC1c1ccccc1 (centres undefined)	572
CNC(=O)c1cc(Oc2ccc(NC(=O)Nc3cc(C(C)(C)C)nn3-c3ccc4ncccc4c3)c(F)c2)ccn1	855

Structure (SMILES)	RP-LC retention time [s]
CN1C(=O)COc2ccc(-c3csc(NC(=O)c4cccc(Cl)c4)n3)cc21	1020
Cc1ccc(NC(=O)C2CCCN2S(=O)(=O)c2ccc3c(c2)CCCC(=O)N3)cc1C (centres undefined)	818
COc1cccc(CNC(=O)C2(C)CCCN(S(=O)(=O)c3ccccc3C)C2)c1 (centres undefined)	957
O=C(c1ccc2nsnc2c1)N(Cc1ccsc1)C1CC1	861
Cc1ccc(N2C=NS(=O)(=O)c3cccnc32)c(F)c1	801
COc1cc(-c2cccc(Cl)c2)nc2ccc(NC(=O)c3ccco3)cc12	790
CCCNC(=O)C1CCN(c2ccc(SCC(=O)Nc3ccccc3OC)nn2)CC1	611
COc1ccc(OC)c(S(=O)(=O)N2CCCC(C(=O)NC3CCCCC3)C2)c1 (centres undefined)	867
Cc1cnc(C2CC2)n1C1CCCN(C(=O)NC(C)C)C1 (centres undefined)	587
CC(C)(C)c1noc(Cc2nnc(-c3ccc(F)cc3)o2)n1	942
CC1=C(c2ccccc2)S(=O)(=O)N=C1N1CCCN(C(=O)C2CCCCC2)CC1	868
O=C(Nc1cnn(-c2ncncc2N2CCCCC2)c1)C1CCCCC1	821
CCOC(=O)N1CCC(NC(=O)CCC2CCN(c3cc(NC4CC4)ncn3)CC2)CC1	619
CC1CCCN(CCCNC(=O)c2cc(=O)n3c(nc4ccccc43)s2)C1 (centres undefined)	638
COc1ccc(NC2CC(=O)N(c3ccccc3Cl)C2=O)cc1 (centres undefined)	627
CCc1ccc(CNC(=O)C2CCN(c3cnc4nccnc4c3)CC2)cc1	747
COc1ccc(Br)c2c1-c1nc(NC(=O)c3cccc(C)c3)sc1C2	1140
Cc1nc(N2CCN(c3ccccc3F)CC2)nc2c1C(=O)CC(c1ccccc1O)C2 (centres undefined)	1190
O=C(NCCCN1CCCC1)c1cccc(N2CCNC(c3ccccc3)C2)n1 (centres undefined)	694
CCOc1ccccc1NC(=O)c1cn(C)c2ncccc12	927
O=C(NCCn1c(=O)n(Cc2ccccc2)c2cccnc21)c1ccco1	725
CC1CCN(CCCNC(=O)c2nc(CCS(=O)(=O)c3ccc(F)cc3)no2)CC1	634
CCCCn1nc2c(S(=O)(=O)N3CCOCC3)cccn2c1=O	702

Structure (SMILES)	RP-LC retention time [s]
COc1cccc(-n2cc(C(=O)OCc3ccccn3)c3ccccc3c2=O)c1	854
Cc1cccc(NC(=O)N2CCCC2c2cc(C)no2)c1 (centres undefined)	780
Cc1ccc(-c2noc(C3CCCN3C(=O)C3CC(=O)N(c4cccc(Cl)c4)C3)n2)cc1 (centres undefined)	1040
CN(C)S(=O)(=O)c1ccc2c(c1)N(CC(=O)NCC1COCCO1)C(=O)C1CCCCN21 (centres undefined)	696
Cc1ccc(N2CCN(Cc3nc(-c4ccc(N5CCCC(C)C5)nc4)no3)CC2)cc1 (centres undefined)	1060
CSc1ccc(N2C=NS(=O)(=O)c3cccnc32)cc1	810
CC(=O)N1CCc2ccccc2C1C(=O)NCc1cc(F)cc(F)c1 (centres undefined)	764
CCn1c(=O)c(C(=O)NCCCc2ccccc2)nc2cccnc21	586
Cc1ccc(CNc2c(-c3ccc(C)c(C)c3)nc3ncccn23)cc1	834
COc1ccc(OC)c(NC(=O)C2Cn3cccc3C(=O)N2C)c1 (centres undefined)	699
Cc1cnc(C)n1C1CCN(S(=O)(=O)c2ccc(C#N)cc2)CC1	626
CCOC(=O)Cn1c(=O)c2c(nc3n2CCCCN3c2ccc(OCC)cc2)n(C)c1=O	944
O=C(CCCN1C(=O)c2cccnc2Oc2ccccc21)N1CCN(c2ccccn2)CC1	605
CCOc1ccc(NC(=O)N2CCN(c3ccc(=O)n(-c4ccc(F)cc4)n3)CC2)cc1	804
CC(C)CN(CC(C)C)C(=O)C1CCCN(c2ncnc3c2nc2n3CCCCC2)C1 (centres undefined)	1000
CCCCOc1ccc(-c2csc(Nc3ccccc3)n2)cc1	1400
O=C(NCCCO)C(=O)Nc1ccc(Cl)c(C(F)(F)F)c1	795
O=S(=O)(c1ccc(F)cc1)N1CCC(OCCOCc2ccccc2)CC1	1060
CC(C)c1cccc(NC(=O)c2nc(N3CCSCC3)c3cnn(C)c3n2)c1	1040
CCOc1ccc(CCNC(=O)Cn2ncc3ccccc32)cc1OCC	845
